Here are results for three molecules from US20240415809A1, “PHARMACEUTICAL COMBINATIONS” (ZYDUS LIFESCIENCES LIMITED, priority 2021, published 2024).

What all share (type): in vivo
In test [1] the test system is DSS induced ulcerative colitis in C57 mice. In words: Apremilast and Rifaximin alone and in combination in DSS induced ulcerative colitis in C57 mice (Example 7). The following applies: for % change in DAI vs DSS vehicle control / % change in bleeding score vs DSS vehicle control / The rectal bleeding score, Day-6 / The disease activity index (DAI) score, Day-6: Day-6, Rifaximin 19 mg/kg p.o., Apremilast 12.5 mg/kg p.o., alone or combined, once a day for six days; for The disease activity index (DAI) score, Day-6: 2.5% DSS; for improvement in disease activity index (DAI) score: Example 7, Apremilast human equivalent mice dose, low dose of Rifaximin. From the text:
(§1) In this study, we have used human equivalent mice dose of Apremilast and very ( 1/18th-fold) low dose of Rifaximin in animal model, which is DSS (Dextran sulfate sodium) induced ulcerative colitis in C57 mice (Br J Pharmacol. 2019 July; 176 (13): 2209-2226. doi: 10.1111/bph.14667. Epub 2019 May 17). The colitis induced by DSS, presents good reproducibility and also mimics clinical symptoms, inflammatory markers and histopathological features which is similar to IBD in humans (Cell Mol Gastroenterol Hepatol. 2015 Mar. 1; 1 (2): 154-170. doi: 10.1016/j.jcmgh.2015.01.006., Arq Gastroenterol. 2014 April-June; 51 (2): 107-12. doi: 10.1590/s0004-28032014000200007. PMID: 25003261).
(§2) C57 mice of 10-12 weeks age were used for this study. On the day of study initiation (day-0) animals were randomized based on their body weight in to different treatment groups as below:
(§3) On day-0 animals were randomized based on body weight and from the same day onwards animals were administered with 2.5% DSS in RO water along with the test compounds till day-6.
(§4) The test compounds were formulated in Tween 80 and 0.5% Na. CMC in (0.5:99.50%) ratio and oral administration was done once a day for six days. During the duration of the experiment, a disease activity index (DAI) score was assessed to evaluate the clinical progression of ulcerative colitis. The DAI was calculated by grading on a scale of 0-5 using the following parameters: loss of body weight (0=normal; 1=0-5%; 2=6-10%; 3=11-15%; 4=16-20%, 5=>20%), stool consistency (0=normal; 1=soft stools; 2=loose stools; 3=watery diarrhea) and rectal bleeding (0=none; 2=presence of hemoccult; 4=severe bleeding). (Ref: Cytokine 2014, 66, 30-39).
(§5) On the day of termination (Day-6), DAI score was assessed followed by nonfasted blood collection. Then animals were sacrificed and relevant tissues were collected in 10% formalin for histological analysis or snap frozen in liquid nitrogen for other assays.
(§6) With the help of MS Excel, percent change vs disease control (DSS vehicle control) in various parameters were calculated and statistical analysis was performed using graph pad prism software.

For test [2] the test system is unchanged. In words: Apremilast and Rifaximin alone and as fixed dose combination (FDC) in DSS induced ulcerative colitis in C57 mice (Example 8). Particulars: for % change in DAI vs DSS vehicle control / % change in bleeding score vs DSS vehicle control / The rectal bleeding score, Day-6 / The disease activity index (DAI) score, Day-6: Day-6, Rifaximin 102.8 mg/kg p.o. BID, Apremilast 2.1 mg/kg p.o. BID, alone or combined; for The disease activity index (DAI) score, Day-6: six days, 2.5% DSS; for improvement in disease activity index (DAI) score / improvement in rectal bleeding: Example 8, Apremilast equivalent to 10 mg, Rifaximin equivalent to 500 mg human dose. How it is done:
In this study, we have used Apremilast which is equivalent to 10 mg of human dose and Rifaximin which is equivalent to 500 mg of human dose in animal model, which is DSS (Dextran sulfate sodium) induced ulcerative colitis in C57 mice (Br J Pharmacol. 2019 July; 176 (13): 2209-2226. doi: 10.1111/bph.14667. Epub 2019 May 17). The colitis induced by
C57 mice of 9-10 weeks age were used for this study. On the day of study initiation (day-0) animals were randomized based on their body weight in to different treatment groups as below:
On day-0 animals were randomized based on body weight and from the same day onwards animals were administered with 2.5% DSS in RO water along with the test compounds till day-6. The test compounds were formulated in Tween 80 and 0.5% Na. CMC in (0.5:99.50%) ratio and oral administration was done twice a day for six days. During the duration of the experiment, a disease activity index (DAI) score was assessed to evaluate the clinical progression of ulcerative colitis.
The DAI was calculated by grading on a scale of 0-5 using the following parameters: loss of body weight (0=normal; 1=0-5%; 2=6-10%; 3=11-15%; 4=16-20%, 5=>20%), stool consistency (0=normal; 1=soft stools; 2=loose stools; 3=watery diarrhea) and rectal bleeding (0=none; 2=presence of hemoccult; 4=severe bleeding). (Ref: Cytokine 2014, 66, 30-39).
as §5, §6

For test [3] the test system is unchanged. The experiment in a line: ADD ON effect of FDC with Mesalamine in DSS induced ulcerative colitis in C57 mice (Example 10). On the procedure:
as §1, with “To study the ADD ON effect of FDC (combination” for “In this study, we have used human equivalent mice dose”, “Apremilast equivalent to 15 mg” for “Apremilast”, “Rifaximin equivalent to 500 mg of human dose) with mesalamine equivalent to 800 mg of human” for “very ( 1/18th-fold) low”, “dose” for “dose of Rifaximin”
as §2, §3
as §4, with “twice” for “once”
On the day of termination (Day-6), DAI score was assessed followed by nonfasted blood collection. Then animals were sacrificed, colon length was measured and then collected in 10% formalin for histological analysis or snap frozen in liquid nitrogen for other assays.
With the help of MS Excel, percent change vs disease control (DSS vehicle control) in various parameters were calculated and statistical analysis was performed using graph pad prism software. Percentage improvement of colon length was calculated by calculating the decrease in colon length due to disease from water vehicle control group and then improvement in colon length against DSS vehicle control group by considering the colon length of water vehicle control group as 100%.

[4] abbreviates: Day-6, Mesalamine 164.4 mg/kg p.o. BID, FDC = Rifaximin 102.8 mg/kg + Apremilast 3.1 mg/kg p.o. BID.

As to `CCOc1cc(C(CS(C)(=O)=O)N2C(=O)c3cccc(NC(C)=O)c3C2=O)ccc1OC` (single isomer, unassigned; (+)) [Apremilast, (+)-2-[1-(3-ethoxy-4-methoxyphenyl)-2-methylsulfonylethyl]-4-acetylaminoisoindoline-1,3-dione], in test [1], the “% change in DAI vs DSS vehicle control” value is −32.8 ± 16.7%; the “% change in bleeding score vs DSS vehicle control” value (shortened to “% change in bleeding score”) was −57.1 ± 21.8%; the “The rectal bleeding score, Day-6” value stood at 1.2 ± 0.6; the “The disease activity index (DAI) score, Day-6” value (from here on “The disease activity index”) was found to be 4.1 ± 1.0. Also, the “improvement in disease activity index (DAI) score” value in test [1] is 32.8%. For the same molecule, in test [2], the “% change in DAI vs DSS vehicle control” value is −11.5 ± 9.5%; the “% change in bleeding score” value is on record as −16.7 ± 17.6%; the “The rectal bleeding score, Day-6” value was determined as 2.0 ± 0.4; the “The disease activity index” value is 6.9 ± 0.7. In test [2], the “improvement in disease activity index (DAI) score” value came to 12% and the “improvement in rectal bleeding” value was 17%.
Turning to `Nc1ccc(O)c(C(=O)O)c1` [Mesalamine], in test [3] (setting [4]), the “% change in DAI vs DSS vehicle control” value is −40.2 ± 5.0%; the “% improvement in colon length vs DSS vehicle control” value is reported as 39.3 ± 11.0%; the “The Colon length, Day-6” value amounted to 6.3 ± 0.2 cm. Also, the “The disease activity index” value in test [3] (Day-6, Mesalamine 164.4 mg/kg p.o. BID, FDC = Rifaximin 102.8 mg/kg + Apremilast 3.1 mg/kg p.o. BID, six days) turned out to be 3.1 ± 0.3. Moreover, in test [3] (Mesalamine equivalent to 800 mg, FDC = Apremilast equivalent to 15 mg and Rifaximin equivalent to 500 mg of human dose), the “improvement in disease activity index (DAI) score” value is 40%.
As to `CO[C@H]1/C=C/O[C@@]2(C)Oc3c(C)c(O)c4c(O)c(c5c(nc6cc(C)ccn65)c4c3C2=O)NC(=O)/C(C)=C\C=C\[C@H](C)[C@H](O)[C@@H](C)[C@@H](O)[C@@H](C)[C@H](OC(C)=O)[C@@H]1C` [Rifaximin], in test [1], the “% change in DAI vs DSS vehicle control” value is recorded as −3.3 ± 11.8%; the “% change in bleeding score” value is −39.3 ± 16.9%; the “The rectal bleeding score, Day-6” value was 1.7 ± 0.5; the “The disease activity index” value worked out at 5.9 ± 0.7. For the same molecule, the “improvement in disease activity index (DAI) score” value in test [1] is on record as “didn't show any improvement”. Also, in test [2], the “% change in DAI vs DSS vehicle control” value is recorded as −17.9 ± 11.2%; the “% change in bleeding score” value is on record as −16.7 ± 21.5%; the “The rectal bleeding score, Day-6” value stood at 2.0 ± 0.5; the “The disease activity index” value came out at 6.4 ± 0.9. Besides, in test [2], the “improvement in disease activity index (DAI) score” value amounted to 18% and the “improvement in rectal bleeding” value stood at 17%.
